Tests used:
[1] = tested on: DLD-1; assay: MTS assay (cell growth inhibition), DLD-1; assay type: cell-based; settings: DLD-1 cells, 72 hours incubation with test compound; concentration not given
Outline: (§1)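 First, seed 3000 cells per well in low-serum (1% FBS) DMEM and culture 18 h. Next, add compounds prepared at 300× in DMSO and diluted 1:40 in DMEM; incubate 72 h. Finally, add MTS/PMS for 4 h and measure absorbance at 492 nm.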

[2] = tested on: Kato III; assay: MTS assay (cell growth inhibition), Kato III; assay type: cell-based; settings: Kato III cells, 72 hours incubation with test compound; concentration not given
Outline: as §1

[3] = tested on: MDA-MB; assay: MTS assay (cell growth inhibition), MDA-MB; assay type: cell-based; settings: MDA-MB cells, 72 hours incubation with test compound; concentration not given
Outline: as §1

[4] = tested on: NCI-H1299; assay: MTS assay (cell growth inhibition), NCI-H1299; assay type: cell-based; settings: NCI-H1299 cells, 72 hours incubation with test compound; concentration not given
Outline: as §1

[5] = tested on: PACA-2; assay: MTS assay (cell growth inhibition), PACA-2; assay type: cell-based; settings: PACA-2 cells, 72 hours incubation with test compound; concentration not given
Outline: as §1

[6] = tested on: PC-3; assay: MTS assay (cell growth inhibition), PC-3; assay type: cell-based; settings: PC-3 cells, 72 hours incubation with test compound; concentration not given
Outline: as §1

melting point | SMILES | MTS CELL KILL DATA (% INHIBITION) DLD-1 [1] | MTS CELL KILL DATA (% INHIBITION) Kato III [2] | MTS CELL KILL DATA (% INHIBITION) MDA-MB [3] | MTS CELL KILL DATA (% INHIBITION) NCI-H1299 [4] | MTS CELL KILL DATA (% INHIBITION) PACA-2 [5] | MTS CELL KILL DATA (% INHIBITION) PC-3 [6]
193 to 198 °C | Cc1ccc(-c2ccccc2CN2C(=O)c3cnc4[nH]ncc4c3C2=O)cc1F [Example 146, 7-[(3′-fluoro-4′-methylbiphenyl-2-yl)methyl]pyrazolo[3,4-b]pyrrolo[3,4-d]pyridine-6,8(3H,7H)-dione] | C (C = <50% INHIBITION) | C (C = <50% INHIBITION) | C (C = <50% INHIBITION) | C (C = <50% INHIBITION) | C (C = <50% INHIBITION) | C (C = <50% INHIBITION)
99 to 100 °C | COc1cccc(-c2ccccc2CN2C(=O)c3cnc4[nH]ncc4c3C2=O)c1 [Example 147, 7-[(3′-methoxybiphenyl-2-yl)methyl]pyrazolo[3,4-b]pyrrolo[3,4-d]pyridine-6,8(3H,7H)-dione] |  |  |  |  |  | 
283 to 285 °C | N#Cc1cccc(CN2C(=O)c3cnc4[nH]nc(Br)c4c3C2=O)c1 [Example 142, 3-[(1-bromo-6,8-dioxo-6,8-dihydropyrazolo[3,4-b]pyrrolo[3,4-d]pyridin-7(3H)-yl)methyl]benzonitrile] | C (C = <50% INHIBITION) | C (C = <50% INHIBITION) | B (B = 50-79% INHIBITION) | C (C = <50% INHIBITION) | C (C = <50% INHIBITION) | A (A = 80-100% INHIBITION)
161 to 163 °C | CC(c1ccccc1-c1ccccc1)N1C(=O)c2cnc3[nH]ncc3c2C1=O (centres unmarked) [Example 144, 7-(1-biphenyl-2-ylethyl)pyrazolo[3,4-b]pyrrolo[3,4-d]pyridine-6,8(3H,7H)-dione] |  |  |  |  |  | 
285 to 287 °C | N#Cc1ccccc1CN1C(=O)c2cnc3[nH]ncc3c2C1=O [Example 108, 2-[(6,8-dioxo-6,8-dihydropyrazolo[3,4-b]pyrrolo[3,4-d]pyridin-7(3H)-yl)methyl]benzonitrile] |  |  |  |  |  | 
 | O=C1c2cnc3[nH]ncc3c2C(=O)N1Cc1ccccc1Br [Example 99, 7-(2-bromobenzyl)pyrazolo[3,4-b]pyrrolo[3,4-d]pyridine-6,8(3H,7H)-dione] | C (C = <50% INHIBITION) | C (C = <50% INHIBITION) | C (C = <50% INHIBITION) | C (C = <50% INHIBITION) | C (C = <50% INHIBITION) | C (C = <50% INHIBITION)
 | Cc1ccc(Cl)c(CN2C(=O)c3cnc4[nH]ncc4c3C2=O)c1F [Example 19, 7-(6-chloro-2-fluoro-3-methylbenzyl)pyrazolo[3,4-b]pyrrolo[3,4-d]pyridine-6,8(3H,7H)-dione] | C (C = <50% INHIBITION) | A (A = 80-100% INHIBITION) | B (B = 50-79% INHIBITION) | C (C = <50% INHIBITION) | C (C = <50% INHIBITION) | A (A = 80-100% INHIBITION)
 | C[C@@H](CN1C(=O)c2cnc3[nH]ncc3c2C1=O)c1ccccc1 [Example 82, 7-[(2R)-2-phenylpropyl]pyrazolo[3,4-b]pyrrolo[3,4-d]pyridine-6,8(3H,7H)-dione] | C (C = <50% INHIBITION) | C (C = <50% INHIBITION) | A (A = 80-100% INHIBITION) | C (C = <50% INHIBITION) | C (C = <50% INHIBITION) | A (A = 80-100% INHIBITION)
 | Cc1cccc(N(CCC#N)CCN2C(=O)c3cnc4[nH]ncc4c3C2=O)c1 [Example 134, 3-{[2-(6,8-dioxo-6,8-dihydropyrazolo[3,4-b]pyrrolo[3,4-d]pyridin-7(3H)-yl)ethyl](3-methylphenyl)amino}propanenitrile] | C (C = <50% INHIBITION) | C (C = <50% INHIBITION) | C (C = <50% INHIBITION) | C (C = <50% INHIBITION) | C (C = <50% INHIBITION) | C (C = <50% INHIBITION)
 | NC(=O)c1ccc(-c2n[nH]c3ncc4c(c23)C(=O)N(CCc2ccccc2)C4=O)cc1 [Example 160, 4-[6,8-dioxo-7-(2-phenylethyl)-3,6,7,8-tetrahydropyrazolo[3,4-b]pyrrolo[3,4-d]pyridin-1-yl]benzamide] | A (A = 80-100% INHIBITION) | A (A = 80-100% INHIBITION) | A (A = 80-100% INHIBITION) | B (B = 50-79% INHIBITION) | A (A = 80-100% INHIBITION) | A (A = 80-100% INHIBITION)
 | CC(CCN1C(=O)c2cnc3[nH]ncc3c2C1=O)c1ccccc1 (centres unmarked) [Example 53, 7-(3-phenylbutyl)pyrazolo[3,4-b]pyrrolo[3,4-d]pyridine-6,8(3H,7H)-dione] | C (C = <50% INHIBITION) | C (C = <50% INHIBITION) | A (A = 80-100% INHIBITION) | C (C = <50% INHIBITION) | A (A = 80-100% INHIBITION) | A (A = 80-100% INHIBITION)

— patent publication US8906928B2, “Substituted pyrazolo-pyrrolo-pyridine-dione compounds” (ArQule, Inc., priority 2009, dated 2014)
